Measurements taken from publication PMC3682423 (The FEBS journal, 2011).

Columns and labels:
[1] = biological target: isolated HIV RNase H domain (p15) (Human immunodeficiency virus type 1 group M subtype B, UniProt P03366); assay: Quenching of intrinsic fluorescence of the isolated RNase H domain; format: binding, HIV-1
K103N RT RNase H = K103N RT RNase H (Human immunodeficiency virus type 1 group M subtype B, UniProt P03366, K702N); assay: biochemical; design: species or system HIV-1
[2] = biological target: wt HIV-1 RT-associated RNase H activity (Human immunodeficiency virus type 1 group M subtype B, UniProt P03366); assay: biochemical; format: biochemical
Y181C RT RNase H = Y181C RT RNase H (Human immunodeficiency virus type 1 group M subtype B, UniProt P03366, Y780C); assay: RNase H polymerase-independent cleavage assay, Y181C RT; format: biochemical, HIV-1
K103N RT RDDP = K103N RT RDDP (Human immunodeficiency virus type 1 group M subtype B, UniProt P03366, K702N); assay: biochemical; design: species or system HIV-1
Y181C RT RDDP = Y181C RT RDDP (Human immunodeficiency virus type 1 group M subtype B, UniProt P03366, Y780C); assay: biochemical; design: species or system HIV-1
[3] = biological target: wt HIV-1 RT-associated RDDP activity (Human immunodeficiency virus type 1 group M subtype B, UniProt P03366); assay: biochemical

Work on `O=C1Cc2ccccc2C(=O)N1O` [2-hydroxy-1,2,3,4-tetrahydroisoquinoline-1,3-dione] yielded an IC50 [1] of 52 µM.

`O=C1c2ccccc2C(=O)c2c1ccc(O)c2O` [Alizarine, alizarine] was tested, and the IC50 (K103N RT RNase H) was over 100 µM, the IC50 [2] was over 100 µM and the “inhibition of wt RT-associated RNase H function (in words)” value ([2]; wt RT) was “inactive”. For the same compound, the IC50 (Y181C RT RNase H) was over 100 µM, the IC50 (K103N RT RDDP) was 68 ± 5 µM and the IC50 (Y181C RT RDDP) was over 100 µM. For the same compound, the IC50 [3] was 79 ± 8 µM.
